This note sets out measurements from ChEMBL document CHEMBL3301464, “MMV Malaria Box anti-babesial screening”.

The nature of assay [1]: (§1) MMV: Anti-babesial activity assay. Parasite pRBCs at 1% parasitemia were cultivated in 100 ul with 96-well plates at 2.5% and 5% hematocrits. The parasites were cultivated in triplicate for 4 days without replacement of the medium for each concentration of the compound. Format: functional, Babesia bovis.
A short description of assay [2]: as §1. It counts as functional, Babesia bigemina.
Assay [3] in a line: as §1. It counts as functional, Babesia equi.
The nature of assay [4]: as §1. Format: functional, Babesia caballi.

pIC50: −log10 of the molar value.

As usually defined, the pIC50 is −log10 of the IC50, conventionally taken in molar units. Read a low pIC50 as a large IC50. Regarding `COc1cccc(Nc2nc(N)c3ccccc3n2)c1`, the pIC50 is 6.92 in assay [1], 7.24 in assay [2], 4.77 in assay [3] and 5.53 in assay [4].

Consider `COc1cc(OC)cc(N2C(=O)N(Cc3ccc(C(C)(C)C)cc3)c3ccccc3S2(=O)=O)c1`, for which the pIC50 in assay [1] is 6.00; in assay [2] it was 6.72; in assay [3] it was 4.88; in assay [4] it was 5.12.

Consider `COc1cc(-c2nc(-c3ccc(Sc4ccccc4)cc3)c(-c3ccccc3)[nH]2)cc(OC)c1O`, for which the pIC50 in assay [1] is 5.12; in assay [2] it was 4.78; in assay [3], 4.92; in assay [4], 5.46.

Consider `CN1c2ccccc2N(C)C1c1ccc2c(c1)OCO2`, for which the pIC50 is 5.31 in assay [1], 7.00 in assay [2], 5.00 in assay [3] and 6.44 in assay [4].

`O=C1c2ccc3c4c(ccc(c24)C(=O)N1CCCCO)C(=O)N(CCCCO)C3=O`: the pIC50 in assay [1] is 6.22; in assay [2] it was 5.48; in assay [3], 6.17; in assay [4], 6.28.

Turning to `COc1ccc(C(=O)Nc2ccc3nc(N4CCCCC4)cc(C)c3c2)cc1OC`, the pIC50 in assay [1] was 4.84; in assay [2], 6.34; in assay [3], 5.16; in assay [4], 6.29.

On to `CCCCCCc1cc2cc(-c3nc4ccccc4[nH]3)c(=Nc3ccccc3C)oc2cc1O`, for which the pIC50 in assay [1] is 4.71; in assay [2], 4.77; in assay [3] it was less than 4.60; in assay [4], 4.60.

Consider `CC(=O)c1sc(NC(=O)Nc2ccc(C)cc2C)nc1C`, for which the pIC50 in assay [1] was 4.96; in assay [2] it was 5.00; in assay [3] it was 5.14; in assay [4], 5.28.

Consider `CC(C)OCc1cc(CN2CCN(c3cccc(Cl)c3)CC2)c(O)c2ncccc12`, for which the pIC50 in assay [1] was 6.23; in assay [2], 6.04; in assay [3] it was 6.00; in assay [4] it was 7.14.

Take `COC(=O)c1ccc(Cl)c2c1C1C=CCC1C(c1cccc3ccccc13)N2` (stereo unspecified): the pIC50 in assay [1] was 4.80; in assay [2], 5.00; in assay [3], 4.75; in assay [4] it was 4.92.

Take `Cc1ccc2c(C)nc(Nc3nc(C)cc(-c4ccccc4)n3)nc2c1`: the pIC50 in assay [1] was 4.77; in assay [2] it was 5.10; in assay [3], 4.84; in assay [4], 5.38.

On to `Cc1cc(NC(=O)c2ccc(-c3ccccc3)cc2)no1`, for which the pIC50 is 6.62 in assay [1], 5.07 in assay [2], 4.91 in assay [3] and 7.12 in assay [4].

For the compound `COc1cc2c3cc1Oc1c(OC)c(OC)cc4c1C(Cc1ccc(O)c(c1)Oc1ccc(cc1)CC3N(C)CC2)N(C)CC4` (stereo unspecified), the pIC50 was 7.17 in assay [1], 5.00 in assay [2], 6.59 in assay [3] and 5.41 in assay [4].

Regarding `O=C(Cc1ccccc1)NC(c1ccc(Cl)cc1)c1c(O)ccc2ccccc12` (stereo unspecified), the pIC50 is 6.00 in assay [1], 4.88 in assay [2], 4.90 in assay [3] and 5.00 in assay [4].

With `COc1ccc2nc(C)cc(Nc3ccc(Cl)cc3)c2c1`, the pIC50 is 5.62 in assay [1], 5.09 in assay [2], 5.37 in assay [3] and less than 4.60 in assay [4].

As for `CCCn1c(=N)c(C(=O)NC2CCCCC2)cc2c(=O)n3cccc(C)c3nc21`, the pIC50 in assay [1] is 5.24; in assay [2], 4.88; in assay [3], 5.53; in assay [4], 5.22.

`Cc1cc(Nc2ccc(OCc3ccccc3)cc2)nc2cc(O)ccc12`: the pIC50 in assay [1] is 6.77; in assay [2] it was 5.46; in assay [3], 5.20; in assay [4], 5.31.

As to `CCCN(CCC)CCCNC(=O)c1cc2c(-c3ccc(OC)c(OC)c3)nn(C)c2s1`, the pIC50 is 4.96 in assay [1], 5.48 in assay [2], 4.71 in assay [3] and 5.26 in assay [4].

Take `CCC(O)c1ccc(Br)cc1NC(=O)c1cccc(Cl)c1` (stereo unspecified): the pIC50 in assay [1] is less than 4.60; in assay [2] it was 5.13; in assay [3], less than 4.60; in assay [4], 4.94.

With `CCN1CCN(c2c(C(=O)c3ccccc3)cnc3cc(OC)c(OC)cc23)CC1`, the pIC50 in assay [1] was 6.07; in assay [2] it was 5.92; in assay [3], 4.88; in assay [4], 4.80.

Turning to `COc1cc2c(cc1OC)C1=NNC(=O)C1=NC(C)(C)C2`, the pIC50 is 5.17 in assay [1], 4.89 in assay [2], 5.44 in assay [3] and 5.35 in assay [4].

Turning to `Cc1ccc(OCCCCCCNCCO)c(C)c1`, the pIC50 is 4.92 in assay [1], 5.01 in assay [2], 5.29 in assay [3] and 4.88 in assay [4].

Regarding `COc1ccc(C2c3ccc4ccccc4c3Oc3ncn(CCCN(C)C)c(=N)c32)cc1` (stereo unspecified), the pIC50 in assay [1] was 7.28; in assay [2], 7.48; in assay [3], 6.31; in assay [4], 5.14.

In the case of `CCOc1ccc(/C=C/c2nc(=O)c3ccccc3o2)cc1`, the pIC50 in assay [1] was 6.00; in assay [2], 5.52; in assay [3], 4.90; in assay [4], 4.71.

For `c1ccc(-c2ccc(-c3nc4ccccc4[nH]3)cc2)cc1`, the pIC50 in assay [1] was 4.60; in assay [2], 5.00; in assay [3], 5.00; in assay [4], 4.83.

For `CC(C)c1ccc(CNCC(O)c2ccccc2)cc1` (stereo unspecified), the pIC50 is 4.84 in assay [1], less than 4.60 in assay [2], 5.00 in assay [3] and 4.91 in assay [4].

Consider `COc1ccc(Br)cc1C1Nc2ccc3ccccc3c2C2=C1C(=O)CC(c1ccccc1)C2` (stereo unspecified), for which the pIC50 is less than 4.60 in assay [1], 4.76 in assay [2], less than 4.60 in assay [3] and 4.88 in assay [4].

For the compound `Cn1c(C(=O)c2cccc3ccccc23)nc2ccccc21`, the pIC50 in assay [1] was 5.43; in assay [2] it was 4.92; in assay [3], 5.00; in assay [4], 6.09.

On to `c1ccc2c(NCCCCCCNc3c4c(nc5ccccc35)CCCC4)c3c(nc2c1)CCCC3`, for which the negative-log IC50 (pIC50) in assay [1] was 6.00; in assay [2] it was 5.66; in assay [3] it was 6.30; in assay [4], 5.20.

Consider `CC1CC2=C(CC1CNCCCN(C)C)C(C)(C)CCC2` (stereo unspecified), for which the pIC50 in assay [1] was 6.24; in assay [2] it was 5.67; in assay [3] it was 6.89; in assay [4], 5.23.

As to `CCN(CC)CCNc1ncnc2c1[nH]c1ccc(Cl)cc12`, the negative logarithm of the IC50 (pIC50) in assay [1] was 4.75; in assay [2] it was 4.79; in assay [3], 5.47; in assay [4], 5.58.

Consider `CCCCN(CCCC)S(=O)(=O)c1ccc(NC(=O)c2ccco2)cc1`, for which the pIC50 in assay [1] is 5.00; in assay [2], 4.60; in assay [3] it was 4.85; in assay [4], 5.42.

In the case of `Oc1ccc(Br)cc1CN1CCN(Cc2ccc(Cl)cc2)CC1`, the pIC50 in assay [1] was 5.06; in assay [2], 4.60; in assay [3] it was 5.53; in assay [4], 5.41.

In the case of `COc1cc(CNCCc2ccc(Cl)cc2)cc(OC)c1O`, the pIC50 in assay [1] is 5.00; in assay [2], 5.24; in assay [3] it was 4.90; in assay [4], 5.16.
